The source of these data is patent US20250032490A1, “THERAPEUTIC REGIMENS FOR TREATMENT OF PAROXYSMAL NOCTURNAL HEMOGLOBINURIA” (Achillion Pharmaceuticals, Inc., priority 2017, published 2025).

In one assay the test system is PNH erythrocytes. Description: CAP-mediated hemolysis assay with PNH erythrocytes (subject A). As to conditions: for Inhibition (%) of CAP activity: Compound 1 0 μM. In kind it is cell-based, human. The protocol: Complement-preserved normal human serum (NHS) from an individual donor of ABO blood group type AB (NHS-AB) was purchase from BioreclamationIVT (Westbury, NY). Gelatin veronal buffer (GVB), pH 7.3, without Ca^++ and Mg^++ (GVB^0) and 100 mM MgCl2 +100 mM EGTA (MgEGTA) were obtained from Complement Technology Inc. (Tyler, TX).
GVB^0·MgEGTA was prepared by mixing GVB^0 and 100 mM MgEGTA in a 9:1 ratio. PNH erythrocytes were used within five days of blood collection; before assay cells were collected by centrifugation at 800×g and 4° C. for 3 minutes and resuspended in fresh cold GVB^0·MgEGTA to a density of 5×10^8 cells/mL.
50 μL of NHS-AB was added to each well. The plates were mixed and incubated at room temperature for 5 minutes. 24 μL of this NHS-AB with compound was then transferred to duplicate wells of V-bottom microtiter plates each containing 76 μL GVB0·MgEGTA. 20 μL PNH erythrocytes was then added to each well and the plates were sealed, mixed, and incubated at 37° C. for 30 minutes with an added shaking for 15 minutes. […] Following incubation, PNH cells were removed by centrifugation at 800×g and 4° C. for 3 minutes, 100 μL supernatant per well was transferred to flat-bottom clear microtiter plates, and A405 of the supernatant was measured in a Molecular Devices Spectramax Plus plate reader.
Combinatorial interactions were analyzed via two methods.
Inhibition was analyzed by the method of Prichard and Shipman (Prichard, M. N. and C. Shipman, Jr. A Three-Dimensional Model to Analyze Drug-Drug Interactions. Antiviral Research 1990, 14:181-205) Three-dimensional surface graphs of each experiment were generated and analyzed using an Excel spreadsheet program adapted from the MacSynergy II spreadsheet (University of Alabama, Birmingham, AL). The X-axis and Y-axis of each surface graph represent the concentrations of the two test compounds, and the Z-axis represents the difference between measured inhibition and a theoretically determined additive inhibition. For an additive relationship, the surface graph resembles a horizontal plane at Z=0, whereas positive surface peaks indicate greater inhibition than expected and therefore synergy, and negative surface peaks indicate less inhibition than expected and therefore antagonism.
Synergy and antagonism volumes were calculated separately as the summed volumes of peaks respectively above and below the Z=0 plane. Volumes were determined using 95% confidence limits to assure significance.
Inhibition was analyzed by the method of Chou and Talalay (Chou, T.-C. and P. Talalay. Analysis of Combined Drug Effects: A New Look at a Very Old Problem. Trends Pharmacol. Sci. 1983, 4:450-454; Chou, T. C. Theoretical basis, experimental design, and computerized simulation of synergism and antagonism in drug combination studies. Pharmacological Reviews 2006, 58:621-681). Analysis using the median-effect equation of Chou and Talalay was performed with CompuSyn software (ComboSyn, Inc, Paramus, NJ). […] Combination index (CI) values were determined at inhibition values of 50%, 75%, and 90%.

Assay [1] relates to C3 fragment deposition on rabbit erythrocytes. Kind of assay: C3 fragment deposition on rabbit erythrocytes (flow cytometry). In kind it is cell-based. As to conditions: 20% C5-depleted normal human serum; read-out: IC50, inhibition of C3 fragment deposition on rabbit erythrocytes. The procedure:
Rabbit erythrocytes, C5-depleted normal human serum (C5-Dpl NHS), gelatin veronal buffer (GVB) without Ca^++ and Mg (GVB^0), 100 mM MgCl2+100 mM EGTA (MgEGTA) were obtained from Complement Technology Inc. (Tyler, TX). GVB^0·MgEGTA was prepared by mixing GVB^0 and 100 mM MgEGTA in a 9:1 ratio. FITC-conjugated anti-C3c antibody (cat#ab4212) and Alexa Fluor® 647-conjugated anti human CD59 antibody (cat#: ab187769) were purchased from Abcam (Cambridge, MA).
Reactions were incubated at 37° C. for 15 minutes, the reactions were quenched by addition of EDTA at a final concentration of 20 mM. Cells were stained with a FITC-conjugated anti-C3c antibody at a dilution of 1:200 and C3 fragment deposition on the surface of rabbit erythrocytes was assessed by flow cytometry with BD Accuri C6 cytometer (BD Biosciences, San Jose, CA). Forward and side scatter parameters were used to gate intact erythrocytes. Controls included cells labeled with FITC-conjugated antibody isotype control. IC50 values from each experiment were determined by curve-fitting of experimental data (the % C3 fragment-positive cells at increasing concentrations of inhibitor) to the four-parameter sigmoidal dose-response equation using non-linear regression analysis (Prism Software, GraphPad, La Jolla, CA).

The test system of assay [2] is C3 fragment deposition on artificial PNH cells. Description: C3 fragment deposition on artificial PNH cells (flow cytometry). The assay is classed as cell-based. The conditions noted are these: 32% acidified C5-depleted normal human serum; read-out: IC50, inhibition of C3 fragment deposition on artificial PNH cells. The procedure:
C5-depleted normal human serum (C5-Dpl NHS), gelatin veronal buffer (GVB) without Ca^++ and Mg^++ (GVB^0), 100 mM MgCl2+100 mM EGTA (MgEGTA) were obtained from Complement Technology Inc. (Tyler, TX). GVB^0·MgEGTA was prepared by mixing GVB^0 and 100 mM MgEGTA in a 9:1 ratio. FITC-conjugated anti-C3c antibody (cat #ab4212) and Alexa Fluor® 647-conjugated anti human CD59 antibody (cat #:ab187769) were purchased from Abcam (Cambridge, MA). […] Ferrone, and F. Mercuriali, The Action of Two Sulfhydryl Compounds on Normal Human Red Cells. Relationship to Red Cells of Paroxysmal Nocturnal Hemoglobinuria. Blood, 1965. 25: p. 502-10). After AET treatment, artificial PNH erythrocytes were centrifuged, supernatant was aspirated and cells were thoroughly washed with phosphate buffered saline (PBS) 3 times followed by washing with GVB^0 buffer ([…]) for additional 3 times. […] C3 fragment deposition on the surface of the erythrocytes was assessed by flow cytometry with BD Accuri C6 cytometer (BD Biosciences, San Jose, CA). […] IC50 values from each experiment were determined by curve-fitting of experimental data (the % C3 fragment-positive cells at increasing concentrations of inhibitor) to the four-parameter sigmoidal dose-response equation using non-linear regression analysis (Prism Software, GraphPad, La Jolla, CA).

As for `CC[C@H](C)[C@H](N)C(=O)N[C@H]1CSSC[C@@H](C(=O)N[C@H](C(N)=O)[C@@H](C)O)NC(=O)[C@H](CCCN=C(N)N)NC(=O)[C@H](Cc2cnc[nH]2)NC(=O)[C@H](Cc2cnc[nH]2)NC(=O)CNC(=O)[C@H](Cc2c[nH]c3ccccc23)NC(=O)[C@H](CC(=O)O)NC(=O)[C@H](CCC(N)=O)NC(=O)[C@H](C(C)C)NC(=O)[C@H](C(C)C)NC1=O` [Compstatin, reference compound], the “Inhibition (%) of CAP activity” value with PNH erythrocytes (Experiment 2, Compstatin 0-300 μM) is given as 0%; with PNH erythrocytes (Experiment #1, Compstatin 0-300 μM), 0%. For the same molecule, the “inhibition at the high end of the test concentration ranges” value in the assay on PNH erythrocytes (single agent, PNH erythrocytes) is “complete inhibition”. The half-inhibitory concentration (IC50) in assay [1] stood at 1400 nM; in assay [2], 2200 nM.

B1: Eculizumab: monoclonal antibody complement inhibitor of the terminal component C5; only approved therapy for PNH (antibody, chains of the INN, looked up)
heavy: QVQLVQSGAEVKKPGASVKVSCKASGYIFSNYWIQWVRQAPGQGLEWMGEILPGSGSTEYTENFKDRVTMTRDTSTSTVYMELSSLRSEDTAVYYCARYFFGSSPNWYFDVWGQGTLVTVSSASTKGPSVFPLAPCSRSTSESTAALGCLVKDYFPEPVTVSWNSGALTSGVHTFPAVLQSSGLYSLSSVVTVPSSNFGTQTYTCNVDHKPSNTKVDKTVERKCCVECPPCPAPPVAGPSVFLFPPKPKDTLMISRTPEVTCVVVDVSQEDPEVQFNWYVDGVEVHNAKTKPREEQFNSTYRVVSVLTVLHQDWLNGKEYKCKVSNKGLPSSIEKTISKAKGQPREPQVYTLPPSQEEMTKNQVSLTCLVKGFYPSDIAVEWESNGQPENNYKTTPPVLDSDGSFFLYSRLTVDKSRWQEGNVFSCSVMHEALHNHYTQKSLSLSLG
light: DIQMTQSPSSLSASVGDRVTITCGASENIYGALNWYQQKPGKAPKLLIYGATNLADGVPSRFSGSGSGTDFTLTISSLQPEDFATYYCQNVLNTPLTFGQGTKVEIKRTVAAPSVFIFPPSDEQLKSGTASVVCLLNNFYPREAKVQWKVDNALQSGNSQESVTEQDSKDSTYSLSSTLTLSKADYEKHKVYACEVTHQGLSSPVTKSFNRGEC
As for B1, the “Inhibition (%) of CAP activity” value in the assay with PNH erythrocytes (Experiment 2, Eculizumab 0-400 μg/mL) was 0%; in the assay on PNH erythrocytes (Experiment #1, Eculizumab 0-400 μg/mL) it was 0%.
